This note sets out measurements from patent US12637499B2, “Adrenomedullin analog, method for producing the same, and pharmaceutical use thereof” (priority 2020, dated 2026).

Like-named read-outs stand apart in the source and are kept apart here. Where a SMILES comes first, the peptide text is derived from it. Bridges are numbered along the chain shown (N, C = ends).

The conditions of data set [1]: 50 nmol/kg subcutaneous, Experiment VI.
Method: (§1) Eight-week-old male Wistar rats were purchased from Charles River Laboratories Japan, Inc. The rats were grown with normal feeds in the absence of specific pathogens under cycles of a 12-hour light period and a 12-hour dark period. […] To determine plasma AM concentrations, 50 nmol/kg of AM or an AM analog was subcutaneously administered. A peripheral blood sample was collected from the tail vein into a test tube (containing 21 μg of aprotinin and 0.3 mg of EDTA-2Na) at predetermined times (0, 15, 30, 60, and 120 minutes after administration). The test tube was centrifuged at 1,700×g to afford plasma.
The nature of data set [2]: in vivo. The note with it: male, Wistar, rat, sc, 50 nmol/kg; for AUC: in vivo; for Cmax / half-life: plasma.
Method: as §1
Data set [3] can be described thus: in vitro. The note with it: for change in amount with the lapse of reaction time in reaction mixture with serum: Experiment IV, up to 240 minutes; for remaining at 4 h: serum, pH 7.1. Here is the method: After the lapse of a predetermined time, a 30-μl portion was taken out of the reaction solution, transferred into 170 μl of 0.1% aqueous solution of trifluoroacetic acid (TFA), and stored at −80° C. until analysis.
Quantitative analysis was performed for AM contained in the thus-obtained samples of a reaction mixture with serum or plasma by using specific fluoroimmunoassay (Tosoh Corporation) with two antibodies differing in their recognition sites. […] In the figure, the abscissa represents reaction time (min), and the ordinate represents concentration of AM (UM).
In the figure, the abscissa represents reaction time (min), and the ordinate represents concentration of AM or an AM analog (μM).
In the figure, the abscissa represents the type of AM or an AM analog, and the ordinate represents residual rates of AM or an AM analog (%).

A short description of data set [4]: in vivo. How it is done: Seven-week-old male Wistar rats were prepared, and grown with normal feeds. To determine plasma AM concentrations, 50 nmol/kg of AM or an AM analog was subcutaneously administered. A peripheral blood sample was collected from the tail vein into a Kantan tube® (containing heparin Na, Eiken Chemical Co., Ltd., Tochigi, Japan) at predetermined times (0, 15, 30, 60, and 120 minutes after administration). The tube was centrifuged at 2,000×g. Plasma was collected from the tube, and transferred into a test tube (containing 21 μg of aprotinin and 0.3 mg of EDTA-2Na) and stored. […] In the figure, the abscissa represents elapsed time after subcutaneous administration (hr), and the ordinate represents concentration in plasma of AM or an AM analog (pM). In addition, maximum concentrations in blood (Cmax) of AM or the AM analogs in rat plasma after subcutaneous administration were calculated.

A short description of data set [5]: in vitro. Conditions: Experiment VIII; 10^−7 M, 37° C.; 4 hours after the beginning of reaction. Here is the method:
The stabilities of the AM analog peptides in serum were evaluated with the same procedure as in Experiment I except the following procedure. […] A reaction mixture containing 4 μL of phosphate buffer, 20 μL of human serum (Sigma-Aldrich Co. LLC, USA), and 14 μL of water was prepared. To the reaction mixture, 2 μL of AM or an AM analog peptide (2×10^−6 M, final concentration: 10^−7 M) was added, and reaction was initiated at 37° C. The reaction was terminated by addition of 160 μL of ELISA buffer to the reaction mixture 0, 1, or 4 hours after the beginning of reaction. […] In the figure, the abscissa represents reaction time (hr), and the ordinate represents concentration in serum of AM or an AM analog (%) represented as relative values to concentration of AM or an AM analog at the beginning of reaction (i.e., 0 hours after the beginning of reaction).

Data set [6] addresses T1, AM type 1 receptor (AMI receptor) (Homo sapiens, UniProt O60895+Q16602).
T1 construct: expressed in transfected cells; medium contains hygromycin B and Geneticin
Briefly: Intracellular cAMP production in HEK293 cells stably expressing AM type 1 receptor (Experiments V and IX). The data set is classed as cell-based. The text has this:
The adrenomedullin activity exerted by AM, shown above with examples, will be exerted via increased concentration of intracellular cAMP in normal cases. Thus, the increased concentration of intracellular cAMP can be considered as an index of the adrenomedullin activity of the compound according to the aspect. In each aspect of the invention, the effect of increasing concentration of intracellular cAMP can be evaluated, for example, by adding a target compound to a cultured cell line (HEK293 cell line) caused to stably express an AM type 1 receptor (AMI receptor) and measuring the amount of intracellular cAMP produced.
The physiological effect of AM is known to be exerted via increase in the concentration of intracellular cAMP (see Kitamura K et al., Biochem Biophys Res Commun, 30 Apr. 1993, Volume 192, Issue 2, pp. 553-560). Accordingly, each AM analog was added to a cultured cell line (HEK293 cell line) caused to stably express an AM type 1 receptor (AMI receptor), and the amount of intracellular cAMP produced was measured. HEK293 cells were cultured in Dulbecco's modified Eagle's medium (with 10% fetal bovine serum, 100 U/ml penicillin G, […] streptomycin, 0.25 mg/ml amphotericin B, […] hygromycin B, and […] Geneticin) in a fibronectin-coated 24-well plate (Thermo Fisher Scientific) (under 37° C., humidified, 5% CO2 conditions). After culturing for 3 days, 90%-confluent cells with accumulation of intracellular cAMP stimulated were subjected to experiment. The medium was exchanged with Hanks's balanced salt solution containing 20 mM 4-(2-hydroxyethyl)-1-piperazineethanesulfonic acid and 0.1% bovine serum albumin, AM or an AM analog was added to the cells in the presence of 0.5 mM isobutylmethylxanthine (IBMX), and the cells were incubated at 37° C. for 15 minutes. The reaction was terminated by addition of cell lysis buffer. Then, the amount of intracellular cAMP produced in the HEK293 cells of each well was measured using an ELISA kit for cAMP measurement (GE Healthcare Japan Corp., #RPN2251). […] In the figure, the abscissa represents logarithms of concentration of AM or an AM analog added (M), and the ordinate represents amounts of intracellular cAMP produced in HEK293 cells stably expressing an AMI receptor (fmol/well).
In the figure, the abscissa represents logarithms of concentration of AM or an AM analog added (M), and the ordinate represents amounts of intracellular cAMP produced in HEK293 cells stably expressing an AMI receptor (fmol/ml).

T1 sequence (Q16602 23-461): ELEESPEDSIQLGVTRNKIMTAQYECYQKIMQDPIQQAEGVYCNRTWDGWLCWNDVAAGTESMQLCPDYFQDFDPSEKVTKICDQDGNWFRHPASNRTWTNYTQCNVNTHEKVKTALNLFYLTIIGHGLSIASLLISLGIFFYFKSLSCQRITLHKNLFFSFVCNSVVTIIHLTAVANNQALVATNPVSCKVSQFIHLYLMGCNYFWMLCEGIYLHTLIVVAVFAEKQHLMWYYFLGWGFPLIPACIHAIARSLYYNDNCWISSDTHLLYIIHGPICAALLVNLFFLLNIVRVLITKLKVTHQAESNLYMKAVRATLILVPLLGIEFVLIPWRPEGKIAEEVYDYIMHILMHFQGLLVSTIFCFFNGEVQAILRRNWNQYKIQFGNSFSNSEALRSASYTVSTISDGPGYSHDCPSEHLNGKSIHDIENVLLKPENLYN
T1 sequence (O60895 43-175): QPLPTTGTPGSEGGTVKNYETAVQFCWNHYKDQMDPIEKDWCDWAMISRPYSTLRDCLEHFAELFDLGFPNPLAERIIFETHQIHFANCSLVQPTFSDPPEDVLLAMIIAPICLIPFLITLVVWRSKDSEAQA

`CC[C@H](C)[C@H](NC(=O)[C@H](CCC(N)=O)NC(=O)[C@H](Cc1c[nH]cn1)NC(=O)[C@H](C)NC(=O)[C@H](CC(C)C)NC(=O)[C@H](CCCCN)NC(=O)[C@H](CCC(N)=O)NC(=O)[C@@H](NC(=O)[C@@H](NC(=O)[C@@H]1CSSC[C@H](NC(=O)CNC(=O)[C@H](Cc2ccccc2)NC(=O)[C@@H](N)CO)C(=O)N[C@@H](CCCNC(=N)N)C(=O)N[C@@H](Cc2ccccc2)C(=O)NCC(=O)N[C@@H]([C@@H](C)O)C(=O)N1)[C@@H](C)O)C(C)C)C(=O)N[C@@H](Cc1ccc(O)cc1)C(=O)N[C@@H](CCC(N)=O)C(=O)N[C@@H](Cc1ccccc1)C(=O)N[C@H](C(=O)N[C@@H](CC(=O)O)C(=O)N[C@@H](CCCCN)C(=O)N[C@@H](CC(=O)O)C(=O)N[C@@H](CCCCN)C(=O)N[C@@H](CC(=O)O)C(=O)N[C@@H](CC(N)=O)C(=O)N[C@H](C(=O)N[C@@H](C)C(=O)N1CCC[C@H]1C(=O)N[C@@H](CCCCN)C(=O)N[C@@H](CO)C(=O)N[C@@H](CCCCN)C(=O)N[C@H](C(=O)N[C@@H](CO)C(=O)N1CCC[C@H]1C(=O)N[C@@H](CCC(N)=O)C(=O)NCC(=O)N[C@@H](Cc1ccc(O)cc1)C(N)=O)[C@@H](C)CC)C(C)C)[C@@H](C)O` [[Lys-44]hAM(13-52), SFGCRFGTCTVQKLAHQIYQFTDKDKDNVAPKSKISPQGY-CONH2] (H-SFGCRFGTCTVQKLAHQIYQFTDKDKDNVAPKSKISPQGY-NH2; disulfide 4-9): in data set [1], the “detection in rat plasma after subcutaneous administration” value (shortened to “detection in rat plasma”) is “detected in rat plasma 15 minutes after administration”. Besides, in data set [2], the area under the curve (AUC) was determined as 0.227 nM·h, the Cmax worked out at 0.396 nM and the half-life was 1.47 h. Further, in data set [3], the “change in amount with the lapse of reaction time in reaction mixture with serum” value is recorded as “almost no decrease or only slight decrease in amount” and the amount remaining at 4 h was 51.8%.

For `CC[C@H](C)[C@H](NC(=O)[C@H](CCC(N)=O)NC(=O)[C@H](Cc1c[nH]cn1)NC(=O)[C@H](C)NC(=O)[C@H](CC(C)C)NC(=O)[C@H](CCCCN)NC(=O)[C@H](CCC(N)=O)NC(=O)[C@@H](NC(=O)[C@@H](NC(=O)[C@@H]1CSSC[C@H](NC(=O)CNC(=O)[C@H](Cc2ccccc2)NC(=O)[C@@H](N)CO)C(=O)N[C@@H](CCCNC(=N)N)C(=O)N[C@@H](Cc2ccccc2)C(=O)NCC(=O)N[C@@H]([C@@H](C)O)C(=O)N1)[C@@H](C)O)C(C)C)C(=O)N[C@@H](Cc1ccc(O)cc1)C(=O)N[C@@H](CCC(N)=O)C(=O)N[C@@H](Cc1ccccc1)C(=O)N[C@H](C(=O)N[C@@H](CC(=O)O)C(=O)N[C@@H](CCCCN)C(=O)N[C@@H](CC(=O)O)C(=O)N[C@@H](CCCCN)C(=O)N[C@@H](CC(=O)O)C(=O)N[C@@H](CC(N)=O)C(=O)N[C@H](C(=O)N[C@@H](C)C(=O)N1CCC[C@H]1C(=O)N[C@H](CCCNC(=N)N)C(=O)N[C@@H](CO)C(=O)N[C@@H](CCCCN)C(=O)N[C@H](C(=O)N[C@@H](CO)C(=O)N1CCC[C@H]1C(=O)N[C@@H](CCC(N)=O)C(=O)NCC(=O)N[C@@H](Cc1ccc(O)cc1)C(N)=O)[C@@H](C)CC)C(C)C)[C@@H](C)O` (relative stereo) [[D-Arg-44]hAM(13-52), SFGCRFGTCTVQKLAHQIYQFTDKDKDNVAP-*R-S-K-I-S-P-Q-G-Y-CONH2], the “detection in rat plasma” value in data set [1] is listed as “detected in rat plasma 15 minutes after administration”. In data set [2], the AUC was determined as 0.0591 nM·h, the Cmax turned out to be 0.111 nM and the half-life is 1.27 h. For the same molecule, in data set [3], the “change in amount with the lapse of reaction time in reaction mixture with serum” value is “almost no decrease or only slight decrease in amount” and the fraction remaining at 4 h was found to be 81.9%.

Turning to `CC[C@H](C)[C@H](NC(=O)[C@H](CCC(N)=O)NC(=O)[C@H](Cc1c[nH]cn1)NC(=O)[C@H](C)NC(=O)[C@H](CC(C)C)NC(=O)[C@H](CCCCN)NC(=O)[C@H](CCC(N)=O)NC(=O)[C@@H](NC(=O)[C@@H](NC(=O)[C@@H]1CSSC[C@H](NC(=O)CNC(=O)[C@H](Cc2ccccc2)NC(=O)[C@@H](N)CO)C(=O)N[C@@H](CCCNC(=N)N)C(=O)N[C@@H](Cc2ccccc2)C(=O)NCC(=O)N[C@@H]([C@@H](C)O)C(=O)N1)[C@@H](C)O)C(C)C)C(=O)N[C@@H](Cc1ccc(O)cc1)C(=O)N[C@@H](CCC(N)=O)C(=O)N[C@@H](Cc1ccccc1)C(=O)N[C@H](C(=O)N[C@@H](CC(=O)O)C(=O)N[C@@H](CCCCN)C(=O)N[C@@H](CC(=O)O)C(=O)N[C@@H](CCCCN)C(=O)N[C@@H](CC(=O)O)C(=O)N[C@@H](CC(N)=O)C(=O)N[C@H](C(=O)N[C@@H](C)C(=O)N1CCC[C@H]1C(=O)N[C@@H](CO)C(=O)N[C@@H](CCCCN)C(=O)N[C@H](C(=O)N[C@@H](CO)C(=O)N1CCC[C@H]1C(=O)N[C@@H](CCC(N)=O)C(=O)NCC(=O)N[C@@H](Cc1ccc(O)cc1)C(N)=O)[C@@H](C)CC)C(C)C)[C@@H](C)O` [[des-Arg-44]hAM(13-52), SFGCRFGTCTVQKLAHQIYQFTDKDKDNVAPSKISPQGY-CONH2] (H-SFGCRFGTCTVQKLAHQIYQFTDKDKDNVAPSKISPQGY-NH2; disulfide 4-9), the “detection in rat plasma” value in data set [4] (50 nmol/kg subcutaneous, Experiment X) is recorded as “detected in rat plasma 15 minutes after administration”. The maximum concentration (Cmax) in data set [4] (male, Wistar, rat, in vivo, sc, 50 nmol/kg) came to 0.679 nM. In addition, in data set [5], the “stability in reaction mixture with human serum” value is “stable”. Further, the EC50 in data set [6] was 1.95 nM. The “intracellular cAMP concentration-increasing activity” value in data set [6] (Experiment IX, addition at 10^−9 M or 10^−8 M, HEK293 cells) was “approximately equivalent to that of hAM(1-52) or hAM(13-52)”.
